Where two headings read alike, the source gives them in different places.
Tests used:
Rabbits = settings: rabbit, in vivo
Source text: Then, erythema and edema formation at the application site was observed. […] The mean value of the sum of erythema and edema scores was used as a simple primary skin irritation index. […]

Mice [1] = experiment: Effect on scratching behavior induced by serotonin application in mice; assay type: in vivo, mouse; settings: counted for 15 minutes
Description: To the cervical and dorsal area of male ICR mice (n=3 to 6) at the age of 4 to 6 weeks, 100 μl of a solution obtained by dissolving serotonin hydrochloride in ethanol at 0.1% (hereinafter referred to as serotonin) was applied, and the number of scratching behavior at the application site with the hind legs occurring immediately after the application was counted for 15 minutes after administration with a counter. Administration of a test compound was carried out by skin application, intravenous administration or oral administration. In the case of skin application, the test compound that was dissolved in ethanol was applied in an amount of 100 μl concurrently with serotonin. In the case of intravenous administration, the test compound that was dissolved in physiological saline was administered at a dose of 10 ml/kg at 5 minutes prior to the serotonin application. In the case of oral administration, the test compound that was dissolved in distilled water was administered at a dose of 10 ml/kg at 20 minutes prior to the serotonin application. The control group of each administration route was given the respective solvent, and the values of scratching behavior were compared between the control group and the test compound group.
The results obtained by skin application of the test compound are shown in Table 3; the results obtained by intravenous administration of the test compound are shown in Table 4; and the results obtained by oral administration of the test compound are shown in Table 5.

Mice [2] = experiment: Acute toxicity test in mice; assay type: in vivo, mouse; settings: intravenous, observed for 2 hours
Source text: Male ICR mice at the age of 4 to 6 weeks were used.

[3] = skin application, concentration 0.1% in ethanol, concurrently with serotonin
[4] = oral administration, dose 30 mg/kg, 20 minutes prior to serotonin

## COCCCNC(=O)c1nc(N[C@H]2CCCC[C@H]2NC(=N)CCO)c2cc(C)ccc2n1.Cl.Cl [Example 59, 4-({(1S,2R)-2-[(3-hydroxypropanimidoyl)amino]cyclohexyl}amino)-N-(3-methoxypropyl)-6-methylquinazolin-2-carboxamide dihydrochloride]
Rabbits; female, Kbs: JW, 24 h
  Simple primary skin irritation index: 0.2
Mice [1]; [3]
  Average number of scratching behavior: 57.8

## COCCCNC(=O)c1nc(N[C@H]2CCCC[C@H]2NC(C)=N)c2cc(C)ccc2n1.Cl.Cl [Example 92, 4-{[(1S,2R)-2-(ethanimidoylamino)cyclohexyl]amino}-N-(3-methoxypropyl)-6-methylquinazolin-2-carboxamide dihydrochloride]
Rabbits; female, Kbs: JW, 24 h
  Simple primary skin irritation index: 0.0
Mice [1]; [4]
  Average number of scratching behavior: 141.0
Mice [1]; [3]
  Average number of scratching behavior: 76.3
Mice [2]; 10 mg/kg
  Change in behavior: No obvious change

## Cc1ccc2nc(C(=O)NC(C)C)nc(N[C@H]3CCCC[C@H]3NC(=N)CCO)c2c1.Cl.Cl [Example 58, 4-({(1S,2R)-2-[(3-hydroxypropanimidoyl)amino]cyclohexyl}amino)-N-isopropyl-6-methylquinazolin-2-carboxamide dihydrochloride]
Rabbits; female, Kbs: JW, 24 h
  Simple primary skin irritation index: 0.4
Mice [1]; [3]
  Average number of scratching behavior: 55.5
Mice [2]; 10 mg/kg
  Change in behavior: No obvious change

## COCCCNC(=O)c1nc(N[C@H]2CCCC[C@H]2NC(N)=NO)c2cc(C)ccc2n1.Cl.Cl [Example 240, 4-[((1S,2R)-2-{[amino(hydroxyimino)methyl]amino}cyclohexyl)amino]-N-(3-methoxypropyl)-6-methylquinazolin-2-carboxamide dihydrochloride]
Rabbits; female, Kbs: JW, 24 h
  Simple primary skin irritation index: 1.0
Mice [1]; [4]
  Average number of scratching behavior: 95.2
Mice [1]; [3]
  Average number of scratching behavior: 65.3
Mice [2]; 10 mg/kg
  Change in behavior: No obvious change

## COCCNC(=O)c1nc(N[C@H]2CCCC[C@H]2NC(N)=NOC)c2cc(C)ccc2n1.COCCNC(=O)c1nc(N[C@H]2CCCC[C@H]2NC(N)=NOC)c2cc(C)ccc2n1.O=S(=O)(O)O [Example 248, 4-[((1S,2R)-2-{[amino(methoxyimino)methyl]amino}cyclohexyl)amino]-N-(2-methoxyethyl)-6-methylquinazolin-2-carboxamide 1/2 sulfate]
Rabbits
  Simple primary skin irritation index: 0.8

## CC(=N)N[C@@H]1CCCC[C@@H]1Nc1nc(C(=O)NC(C)C)nc2ccc(C)cc12.Cl.Cl [Example 101, 4-{[(1S,2R)-2-(ethanimidoylamino)cyclohexyl]amino}-N-isopropyl-6-methylquinazolin-2-carboxamide dihydrochloride]
Rabbits; female, Kbs: JW, 24 h
  Simple primary skin irritation index: 2.6
Mice [1]; [3]
  Average number of scratching behavior: 56.8
Mice [2]; 10 mg/kg
  Change in behavior: No obvious change

## COCCCNC(=O)c1nc(N[C@H]2CCCC[C@H]2NC(=N)COC)c2cc(C)ccc2n1.Cl.Cl [Example 93, 4-({(1S,2R)-2-[(2-methoxyethanimidoyl)amino]cyclohexyl}amino)-N-(3-methoxypropyl)-6-methylquinazolin-2-carboxamide dihydrochloride]
Rabbits; female, Kbs: JW, 24 h
  Simple primary skin irritation index: 0.2

## COC(C)(C)C(=N)N[C@@H]1CCCC[C@@H]1Nc1nc(C(=O)NCC(C)(C)C)nc2ccc(C)cc12.Cl.Cl [Example 19, N-(2,2-dimethylpropyl)-4-({(1S,2R)-2-[(2-methoxy-2-methylpropanimidoyl)amino]cyclohexyl}amino)-6-methylquinazolin-2-carboxamide dihydrochloride]
Rabbits; female, Kbs: JW, 24 h
  Simple primary skin irritation index: 0.4
Mice [1]; [3]
  Average number of scratching behavior: 69.2

## CCOCCNC(=O)c1nc(N[C@H]2CCCC[C@H]2NC(=N)COC)c2cc(C)ccc2n1.Cl.Cl [Example 95, N-(2-ethoxyethyl)-4-({(1S,2R)-2-[(2-methoxyethanimidoyl)amino]cyclohexyl}amino)-6-methylquinazolin-2-carboxamide dihydrochloride]
Rabbits; female, Kbs: JW, 24 h
  Simple primary skin irritation index: 0.7

## COCCNC(=O)c1nc(N[C@H]2CCCC[C@H]2NC(C)=N)c2cc(C)ccc2n1.Cl.Cl [Example 1, 4-{[(1S,2R)-2-(ethanimidoylamino)cyclohexyl]amino}-N-(2-methoxyethyl)-6-methylquinazolin-2-carboxamide dihydrochloride]
Rabbits; female, Kbs: JW, 24 h
  Simple primary skin irritation index: 0.3
Mice [1]; [3]
  Average number of scratching behavior: 57.8
Mice [2]; 10 mg/kg
  Change in behavior: No obvious change

## Cc1ccc2nc(C(=O)NC(C)C)nc(N[C@H]3CCCC[C@H]3NC(=N)N)c2c1.Cl.Cl [Comparative control E, 4-[((1S,2R)-2-{[amino(imino)methyl]amino}cyclohexyl)amino]-N-isopropyl-6-methylquinazoline-2-carboxamide dihydrochloride, reference compound]
Rabbits; female, Kbs: JW, 24 h
  Simple primary skin irritation index: 3.6

## CCOCCNC(=O)c1nc(N[C@H]2CCCC[C@H]2NC(=N)CCO)c2cc(C)ccc2n1.Cl.Cl [Example 61, N-(2-ethoxyethyl)-4-({(1S,2R)-2-[(3-hydroxypropanimidoyl)amino]cyclohexyl}amino)-6-methylquinazolin-2-carboxamide dihydrochloride]
Rabbits; female, Kbs: JW, 24 h
  Simple primary skin irritation index: 0.4

## Cc1ccc2nc(C(=O)NCC(C)(C)C)nc(N[C@H]3CCCC[C@H]3NC(=N)N)c2c1.Cl.Cl [Comparative control B, 4-[((1S,2R)-2-{[amino(imino)methyl]amino}cyclohexyl)amino]-6-methyl-N-neopentyl quinazoline-2-carboxamide dihydrochloride, reference compound]
Rabbits
  Simple primary skin irritation index: 2.4

## Cc1ccc2nc(C(=O)NCC(C)C)nc(N[C@H]3CCCC[C@H]3NC(N)=NO)c2c1.Cl.Cl [Example 212, 4-[((1S,2R)-2-{[amino(hydroxyimino)methyl]amino}cyclohexyl)amino]-N-isobutyl-6-methylquinazolin-2-carboxamide dihydrochloride]
Rabbits; female, Kbs: JW, 24 h
  Simple primary skin irritation index: 0.8
Mice [1]; [3]
  Average number of scratching behavior: 49.8
Mice [2]; 10 mg/kg
  Change in behavior: No obvious change

## COCCNC(=O)c1nc(N[C@H]2CCCC[C@H]2NC(=N)N)c2cc(C)ccc2n1.Cl.Cl [Comparative control F, 4-[((1S,2R)-2-{[amino(imino)methyl]amino}cyclohexyl)amino]-N-(2-methoxyethyl)-6-methylquinazoline-2-carboxamide dihydrochloride, reference compound]
Rabbits; female, Kbs: JW, 24 h
  Simple primary skin irritation index: 2.2

## COCCCNC(=O)c1nc(N[C@H]2CCCC[C@H]2NC(=N)CCOC)c2cc(C)ccc2n1.Cl.Cl [Example 35, 4-({(1S,2R)-2-[(3-methoxypropanimidoyl)amino]cyclohexyl}amino)-N-(3-methoxypropyl)-6-methylquinazolin-2-carboxamide dihydrochloride]
Rabbits; female, Kbs: JW, 24 h
  Simple primary skin irritation index: 1.5
Mice [1]; [3]
  Average number of scratching behavior: 69.0

## Cc1ccc2nc(C(=O)NCC(C)C)nc(N[C@H]3CCCC[C@H]3NC(=N)C(C)(C)O)c2c1.Cl.Cl [Example 60, 4-({(1S,2R)-2-[(2-hydroxy-2-methylpropanimidoyl)amino]cyclohexyl}amino)-N-isobutyl-6-methylquinazolin-2-carboxamide dihydrochloride]
Rabbits; female, Kbs: JW, 24 h
  Simple primary skin irritation index: 1.0
Mice [1]; intravenous administration, dose 3 mg/kg, 5 minutes prior to serotonin
  Average number of scratching behavior: 64.0
Mice [2]; 5 mg/kg
  Change in behavior: No obvious change

## CCOCCNC(=O)c1nc(N[C@H]2CCCC[C@H]2NC(=N)N)c2cc(C)ccc2n1.Cl.Cl [Comparative control C, 4-[((1S,2R)-2-{[amino(imino)methyl]amino}cyclohexyl)amino]-N-(2-ethoxyethyl)-6-methylquinazoline-2-carboxamide dihydrochloride, reference compound]
Rabbits; female, Kbs: JW, 24 h
  Simple primary skin irritation index: 2.3

## COCCNC(=O)c1nc(N[C@H]2CCCC[C@H]2NC(=N)COC)c2cc(C)ccc2n1.Cl.Cl [Example 91, 4-({(1S,2R)-2-[(2-methoxyethanimidoyl)amino]cyclohexyl}amino)-N-(2-methoxyethyl)-6-methylquinazolin-2-carboxamide dihydrochloride]
Rabbits; female, Kbs: JW, 24 h
  Simple primary skin irritation index: 0.5
Mice [1]; [3]
  Average number of scratching behavior: 70.5

## COCCCNC(=O)c1nc(N[C@H]2CCCC[C@H]2NC(=N)N)c2cc(C)ccc2n1.Cl.Cl [Comparative control D, 4-[((1S,2R)-2-{[amino(imino)methyl]amino}cyclohexyl)amino]-N-(3-methoxypropyl)-6-methylquinazoline-2-carboxamide dihydrochloride, reference compound]
Rabbits; female, Kbs: JW, 24 h
  Simple primary skin irritation index: 2.0

## CCOCCNC(=O)c1nc(N[C@H]2CCCC[C@H]2NC(C)=N)c2cc(C)ccc2n1.Cl.Cl [Example 94, 4-{[(1S,2R)-2-(ethanimidoylamino)cyclohexyl]amino}-N-(2-ethoxyethyl)-6-methylquinazolin-2-carboxamide dihydrochloride]
Rabbits; female, Kbs: JW, 24 h
  Simple primary skin irritation index: 1.0

## CON(C)C(=N)N[C@@H]1CCCC[C@@H]1Nc1nc(C(=O)NCC(C)C)nc2ccc(C)cc12.Cl.Cl [Example 236, 4-{[(1S,2R)-2-({imino[methoxy(methyl)amino]methyl}amino)cyclohexyl]amino}-N-isobutyl-6-methylquinazolin-2-carboxamide dihydrochloride]
Rabbits; female, Kbs: JW, 24 h
  Simple primary skin irritation index: 1.6

Source: patent publication US8835446B2, “Quinazoline derivatives and pharmaceutical compositions thereof” (Nippon Shinyaku Co., Ltd., priority 2005, dated 2014)
